Experimental data reported in US7718655B2, “Trisubstituted triazine compounds, and methods for making and using the compounds, which have antitubulin activity” (New York University, priority 2001, dated 2010).
Where two headings read alike, the source gives them in different places.

Experiments:
[1] = system: Human U937 leukemia cells; assay: Growth inhibition of cancer cells (MTS); assay type: cell-based; details: 490 nm, read-out: IC50 (Cancer cell growth inhibition)
Protocol: Growth Inhibition of Cancer Cells
Human U937 leukemia cells were obtained from ATCC. Cells were grown in proliferation media (RPMI-1640 plus 2.38 g/L HEPES, 4.5 g/L glucose, 1.5 g/L NaHCO3, 0.3 g/L Glutamine, 0.11 g Na Pyruvate) plus 20% fetal calf serum. Cells were kept at 37° C., 5% CO2, at a concentration of 0.2-1×10^6 cells/ml. To a 100 μl cell suspension in 96-well plate (1×10^4 cells/well), 20 μl of MTS tetrazolium reagent solution (Promega) in RPMI -1640 medium was added for 2 hours at 37° C. in a 5% CO2 atmosphere. After the incubation period, the reduced formazan product was measured at 490 nm using a plate reader.

tubulin = system: T1, tubulin; assay: In vitro microtubule disassembly assay; assay type: biochemical; details: tubulin and rhodamine-tubulin, 37° C. for 20 minutes, fluorescence microscopy
T1 construct: fused on or other part: rhodamine label on part of the tubulin (a fluorescent tracer, not a protein)
Protocol: In Vitro Microtubule Disassembly Assay
Reagent A was made by mixing 250 mg/25 mL tubulin and rhodamine-tubulin (60 mg/6 mL), purchased from Cytoskeleton, with 20 mL, 10 mM GTP at 0° C. Reagent B was made by dissolving the compounds (various concentrations, 2 mL in DMSO) in 2×assay buffer (200 mL, 80 mM K PIPES (pH 7.5), 5 mM MgCl2, 1 mM EDTA). Two mL of Reagent A and two mL of Reagent B were mixed in a […] and incubated at 37° C. for 20 minutes. Then, 100 uL of 60% glycerol was added and mixed by gently pipetting the mixture up and down three times. Two uL of the mixture was placed onto a glass slide, covered with a coverslip, and observed by fluorescence microscopy (400×magnification, rhodamine channel).

[2] = Homo sapiens, U-937, MTS tetrazolium reagent

Compound	IC50 [1, 2]	IC50 (tubulin)	IC50 ([1]; MTS tetrazolium reagent)
COc1ccc(CNc2nc(NCc3ccc(OC)cc3)nc(NC3CCCC3)n2)cc1 [Compound S1]	10 µM	8 µM	–
COc1ccc(CNc2nc(NCc3ccc(OC)cc3)nc(NCC3CCCO3)n2)cc1 (stereo not drawn) [Compound S17]	10 µM	< 20 µM	–
COc1ccc(CNc2nc(NCc3ccc(OC)cc3)nc(NC3CC3)n2)cc1 [Compound S22]	25 µM	< 20 µM	–
CCC(C)Nc1nc(NCc2ccc(OC)cc2)nc(NCc2ccc(OC)cc2)n1 (stereo not drawn) [Compound S25]	25 µM	< 20 µM	–
CNc1nc(NCc2ccc(OC)cc2)nc(NCc2ccc(OC)cc2)n1 [Compound S33]	18 µM	< 20 µM	–
COc1ccc(CNc2nc(NCCO)nc(NCc3ccc(OC)cc3)n2)cc1 [Compound S34]	20 µM	< 20 µM	–
COc1ccc(CNc2nc(NCc3ccc(OC)cc3)nc(NC3CCC3)n2)cc1 [Compound S43]	12 µM	< 20 µM	–
CCNc1nc(NCc2ccc(OC)cc2)nc(NCc2ccc(OC)cc2)n1 [Compound S51]	20 µM	< 20 µM	–
COc1ccc(CNc2nc(NCc3ccc(OC)c(OC)c3)nc(NC3CCCCC3)n2)cc1 [Compound S53]	1 µM	2.5 µM	–
COc1ccc(CNc2nc(NCc3ccc(OC)cc3)nc(NC3CCCCC3)n2)cc1 [Compound S77, N-Cyclohexyl-N′,N″-bis-(4-methoxybenzyl)-[1,3,5]Triazine-2,4,6-triamine]	5 µM	< 20 µM	–
COc1ccc(CNc2nc(NCc3ccc(OC)cc3)nc(N3CCOCC3)n2)cc1 [Compound S78, N′,N″-Bis-(4-methoxybenzyl)-6-morpholin-4-yl-[1,3,5]Triazine-2,4-diamine]	–	< 20 µM	12 µM
COc1ccc(CNc2nc(NCc3ccc(OC)cc3)nc(NC(C)C)n2)cc1 [Compound S84, N-Isopropyl-N′,N″-bis-(4-methoxybenzyl)-[1,3,5]Triazine-2,4,6-triamine]	9 µM	< 20 µM	–
